Key:
[1] = Inhibition of Mycobacterium bovis BCG cytochrome bd oxidase with ATP synthase overexpression inverted membrane vesicles; assay type: cell membranes, Mycobacterium tuberculosis variant bovis, Membrane vesicle
[2] = Inhibition of wild type Mycobacterium bovis BCG cytochrome bd oxidase assessed as inhibition of oxygen consumption rate measured after 5 days by Methylene blue dye based assay; design: species or system Mycobacterium tuberculosis variant bovis

c1ccc(CCNc2ncnc3ccccc23)cc1
IC50 [1]: 11 µM

FC(F)(F)c1ccc(Oc2ccc(Nc3ncnc4ccccc34)cc2)cc1
IC50 [1]: 0.5 µM | IC50 [2]: 0.8 µM

NC(=O)NC(=O)c1nc(-c2cc3ccccc3o2)c(N)nc1N
IC50 [1]: 21.2 µM

CCc1nc2ccc(Cl)cn2c1C(=O)NCc1ccc(N2CCC(c3ccc(OC(F)(F)F)cc3)CC2)cc1 [TELACEBEC]
IC50 [1]: 6.2 µM

From ChEMBL document CHEMBL5344478, “Cytochrome bd oxidase: an emerging anti-tubercular drug target” (RSC Med Chem, 2024)
